These results are taken from patent US6605628B1, “Method of using 5-(arysulfonyl)-, 5-(arylsulfanyl)-and 5-(arylsulfanyl)thiazolidine-2,4-diones for inhibition of farnesyl-protein transferase” (Wyeth Holdings Corporation, priority 2001, dated 2003).

The target of one experiment is T1, FPTase (Homo sapiens, UniProt P49354+P49356). The experiment can be described thus: in vitro FTase Inhibition Assay, K-Ras used as substrate for farnesylation. The class given is biochemical. To be noted: Table I. Here is the method: (§1) Enzyme test procedure: FPTase inhibition in vitro assay was performed according to James, G. L., Brown, M. S., and Goldstein, J. L., Methods in Enzymology, 1995, 255, 38-46; and Garcia, M. A., et al., J. Biol. Chem., 1993, 268, 18415-18420.
(§2) Materials—Purified FPTase (Moomaw, J. F. and Casey, P. J., J. Biol. Chem., 1992, 267, 17438-17443), purified His6-Ras, inhibitor compounds at 10 mg/ml or 10 mM in 100% DMSO, ^3H-FPP (50,000 dpm/pmol) Amersham, TCA/SDS (6%/2%), TCA (6%), Glass fiber filters ([…]), vacuum manifold or 96 well filtration plates.
(§3) Methods—1. Dilute FPTase inhibitors from stock solutions to 2.5× in 2.5% DMSO, 10 mM DTT, 0.5% octyl-B-glucoside. 2. Solution #1 is added to FPTase reaction in a volume of […]. 3. Standard reaction mix, […], contains 50 mM Tris (7.5), 10 mM ZnCl2, 3 mM MgCl2, 20 mM KCl, 5 mM DTT, 0.2% octyl-B-glucoside, 1% DMSO, […] His6-Ras, 10 ng FPTase, and various concentrations of FPTase inhibitors. 4. Incubate for 30-90 min at 25° C. 5. Stop reactions with TCA/SDS (6%/2%), hold at 4° C. for 45-60 min. 6. Filter by manifold or 96 well plate, wash filter 3-5× with TCA (6%). 7. Add scintillant to filters, measure ^3H-FPP incorporation into Ras protein.
(§4) Analysis of Results—Percent inhibition by test compounds is determined by the following:
(§5) (cpm from precipitated Ras with test compounds)−(background cpm)×100=% inhibition.
(§6) (cpm from precipitated Ras without test compounds)−(background cpm)
As to “5-(4-Iodobenzenesulfonyl)-5-[5-(2-methyl-4-nitrophenyl)pent-4-ynyl]-thiazolidine-2,4-dione [Example 131]”, the IC50 – broadly, the concentration at which inhibition is half-maximal – fell in the range of 80 to 310 nM.

For another experiment, the target named is T1, FPTase. The experiment can be described thus: in vitro FTase Inhibition Assay, H-Ras used as substrate for farnesylation. The class given is biochemical. The following applies: Table I, read-out: IC50 H-Ras*. Here is the method: as §1, §2, §3, §4, §5, §6
On to “5-(4-Iodobenzenesulfonyl)-5-[5-(2-methyl-4-nitrophenyl)pent-4-ynyl]-thiazolidine-2,4-dione [Example 131]”, for which the IC50 lay in the range of 6 to 32 nM.

`O=C1NC(=O)C(CCCC#Cc2ccc(Cl)cc2)(Sc2ccc(F)cc2)S1` (centres unmarked) [Example 96, 5-[5-(4-Chlorophenyl)pent-4-ynyl]-5-(4-fluorophenylsulfanyl)-thiazolidine-2,4-dione]: the 50% inhibitory concentration (IC50) turned out to be 700 nM.

For `COc1ccc(S(=O)(=O)C2(CC#Cc3cccnc3)SC(=O)NC2=O)cc1` (centres unmarked) [Example 167, 5-(4-Methoxybenzenesulfonyl)-5-(3-pyridin-3-ylprop-2-ynyl)-thiazolidine-2,4-dione], the concentration for half-maximal inhibition (IC50) came to 1500 nM.

In the case of `Cc1ccc(S(=O)(=O)C2(CC#Cc3cccs3)SC(=O)NC2=O)cc1` (centres unmarked) [Example 168, 5-(3-Thiophen-2-yl-prop-2-ynyl)-5-(toluene-4-sulfonyl)-thiazolidine-2,4-dione], the half-maximal inhibitory concentration (IC50) was determined as 280 nM.

As for `COc1ccc(S(=O)(=O)C2(CCCC#Cc3ccc(Cl)cc3)SC(=O)N(CCCn3ccnc3)C2=O)cc1` (centres unmarked) [Example 233, 5-[5-(4-Chlorophenyl)pent-4-ynyl]-3-(3-imidazol-1-yl-propyl)-5-(4-methoxybenzenesulfonyl)-thiazolidine-2,4-dione], the 50% inhibitory concentration (IC50) came to 2900 nM.

Staying with this experiment, now noted: Table II, read-out: IC50 (wi. H-Ras).
For the molecule `O=C1NC(=O)C(CC#Cc2ccc(Cl)cc2)(S(=O)(=O)c2ccc3ccccc3c2)S1` (centres unmarked) [Example 239, 5-[3-(4-Chloro-phenyl)-prop-2-ynyl]-5-(napthalene-2-sulfonyl)-thiazolidine-2,4-dione], the IC50 was found to be 700 nM.

Turning to `O=C1NC(=O)C(CC#Cc2ccc(Cl)cc2)(S(=O)(=O)c2ccccc2)S1` (centres unmarked) [Example 240, 5-Benzenesulfonyl-5-[3-(4-chloro-phenyl)-prop-2-ynyl]-thiazolidine-2,4-dione], the IC50 amounted to 500 nM.

For `O=C1NC(=O)C(CC#Cc2ccccc2)(S(=O)(=O)c2ccccc2)S1` (centres unmarked) [Example 241, 5-Benzenesulfonyl-5-[3-phenyl-prop-2-ynyl]-thiazolidine-2,4-dione], the IC50 amounted to 1500 nM.

For `O=C1NC(=O)C(CC#Cc2ccccc2)(S(=O)(=O)c2ccc(Cl)cc2)S1` (centres unmarked) [Example 242, 5-(4-Chloro-benzenesulfonyl)-5-(3-phenyl-prop-2-ynyl)-thiazolidine-2,4-dione], the IC50 came out at 1000 nM.

For `O=C1NC(=O)C(CC#Cc2ccc(Cl)cc2)(S(=O)(=O)c2ccc(F)cc2)S1` (centres unmarked) [Example 243, 5-[3-(4-Chloro-phenyl)-prop-2-ynyl]-5-(4-fluoro-benzenesulfonyl)-thiazolidine-2,4-dione], the IC50 turned out to be 300 nM.

`O=C1NC(=O)C(CC#Cc2ccc(Cl)cc2)(S(=O)(=O)c2ccc(Cl)cc2)S1` (centres unmarked) [Example 244, 5-(4-Chloro-benzenesulfonyl)-5-[3-(4-chloro-phenyl)-prop-2-ynyl]-thiazolidine-2,4-dione]: the IC50 amounted to 100 nM.

As for `O=C1NC(=O)C(CC#Cc2ccc(Cl)cc2)(S(=O)(=O)c2ccc(Br)cc2)S1` (centres unmarked) [Example 245, 5-(4-Bromo-benzenesulfonyl)-5-[3-(4-chloro-phenyl)-prop-2-ynyl]-thiazolidine-2,4-dione], the half-maximal inhibitory concentration (IC50) is 50 nM.

In the case of `Cc1ccc(S(=O)(=O)C2(CC#Cc3ccc(F)cc3)SC(=O)NC2=O)cc1` (centres unmarked) [Example 246, 5-[3-(4-Fluoro-phenyl)-prop-2-ynyl]-5-(toluene-4-sulfonyl)-thiazolidine-2,4-dione], the half-inhibitory concentration (IC50) stood at 300 nM.

Turning to `Cc1ccc(C#CCC2(S(=O)(=O)c3ccc(C)cc3)SC(=O)NC2=O)cc1` (centres unmarked) [Example 247, 5-(Toluene-4-sulfonyl)-5-[3-(p-tolyl)-prop-2-ynyl]-thiazolidine-2,4-dione], the concentration for half-maximal inhibition (IC50) was found to be 300 nM.

As to `O=C1NC(=O)C(CC#Cc2ccccc2)(S(=O)(=O)c2ccc(Br)cc2)S1` (centres unmarked) [Example 248, 5-(4-Bromo-benzenesulfonyl)-5-(3-phenyl-prop-2-ynyl)-thiazolidine-2,4-dione], the half-inhibitory concentration (IC50) is 450 nM.

Consider `COc1ccc(S(=O)(=O)C2(CC#Cc3ccc(Cl)cc3)SC(=O)NC2=O)cc1` (centres unmarked) [Example 249, 5-[3-(4-Chloro-phenyl)-prop-2-ynyl]-5-(4-methoxy-benzenesulfonyl)-thiazolidine-2,4-dione], for which the IC50 came out at 400 nM.

As for `O=C1NC(=O)C(CC#Cc2ccccc2)(S(=O)(=O)c2ccc3ccccc3c2)S1` (centres unmarked) [Example 250, 5-(Naphthalene-2-sulfonyl)-5-(3-phenyl-prop-2-ynyl)-thiazolidine-2,4-dione], the half-inhibitory concentration (IC50) was determined as 1500 nM.

As to `Cc1ccc(S(=O)(=O)C2(CC#Cc3ccc(C(F)(F)F)cc3)SC(=O)NC2=O)cc1` (centres unmarked) [Example 251, 5-(Toluene-4-sulfonyl)-5-[3-(4-trifluoromethyl-phenyl)-prop-2-ynyl]-thiazolidine-2,4-dione], the IC50 amounted to 150 nM.

For `COc1ccc(C#CCC2(S(=O)(=O)c3ccc(C)cc3)SC(=O)NC2=O)cc1` (centres unmarked) [Example 252, 5-[3-(4-Methoxy-phenyl)-prop-2-ynyl]-5-(toluene-4-sulfonyl)-thiazolidine-2,4-dione], the IC50 worked out at 80 nM.

For the molecule `Cc1ccc(S(=O)(=O)C2(CC#Cc3ccc(Br)cc3)SC(=O)NC2=O)cc1` (centres unmarked) [Example 253, 5-[3-(4-Bromo-phenyl)-prop-2-ynyl]-5-(toluene-4-sulfonyl)-thiazolidine-2,4-dione], the IC50 was 90 nM.

On to `O=C1NC(=O)C(CC#Cc2ccc(C(F)(F)F)cc2)(S(=O)(=O)c2ccccc2)S1` (centres unmarked) [Example 254, 5-Benzenesulfonyl-5-[3-(4-trifluoromethyl-phenyl)-prop-2-ynyl]-thiazolidine-2,4-dione], for which the IC50 worked out at 500 nM.

In the case of `O=C1NC(=O)C(CC#Cc2ccc(F)cc2)(S(=O)(=O)c2ccc(Cl)cc2)S1` (centres unmarked) [Example 255, 5-(4-Chloro-benzenesulfonyl)-5-[3-(4-fluoro-phenyl)-prop-2-ynyl]-thiazolidine-2,4-dione], the 50% inhibitory concentration (IC50) is 150 nM.

For `Cc1cccc(S(=O)(=O)C2(CC#Cc3ccc(Cl)cc3)SC(=O)NC2=O)c1` (centres unmarked) [Example 256, 5-[3-(4-Chloro-phenyl)-prop-2-ynyl]-5-(toluene-3-sulfonyl)-thiazolidine-2,4-dione], the half-maximal inhibitory concentration (IC50) was determined as 800 nM.

In the case of `Cc1ccc(S(=O)(=O)C2(CC#Cc3cccc(Cl)c3)SC(=O)NC2=O)cc1` (centres unmarked) [Example 257, 5-[3-(3-Chloro-phenyl)-prop-2-ynyl]-5-(toluene-4-sulfonyl)-thiazolidine-2,4-dione], the IC50 was found to be 35 nM.

As for `O=C1NC(=O)C(CC#Cc2ccccc2Cl)(S(=O)(=O)c2ccccc2)S1` (centres unmarked) [Example 258, 5-Benzenesulfonyl-5-[3-(2-chloro-phenyl)-prop-2-ynyl]-thiazolidine-2,4-dione], the half-inhibitory concentration (IC50) is 2000 nM.

Take `O=C1NC(=O)C(CC#Cc2cc(C(F)(F)F)cc(C(F)(F)F)c2)(S(=O)(=O)c2ccccc2)S1` (centres unmarked) [Example 259, 5-Benzenesulfonyl-5-[3-(3,5-bis-trifluoromethyl-phenyl)-prop-2-ynyl]-thiazolidine-2,4-dione]: the IC50 worked out at 150 nM.

Regarding `Cc1ccc(S(=O)(=O)C2(CC#Cc3cc(C(F)(F)F)cc(C(F)(F)F)c3)SC(=O)NC2=O)cc1` (centres unmarked) [Example 260, 5-[3-(3,5-bis-Trifluoromethyl-phenyl)-prop-2-ynyl]-5-(toluene-4-sulfonyl)-thiazolidine-2,4-dione], the IC50 was found to be 100 nM.

`O=C1NC(=O)C(CC#Cc2cccc(Cl)c2)(S(=O)(=O)c2ccccc2)S1` (centres unmarked) [Example 261, 5-Benzenesulfonyl-5-[3-(3-chloro-phenyl)-prop-2-ynyl]-thiazolidine-2,4-dione]: the half-inhibitory concentration (IC50) stood at 300 nM.

As for `Cc1ccc(S(=O)(=O)C2(CC#Cc3ccc(Cl)cc3)SC(=O)NC2=O)cc1` (centres unmarked) [Example 262], the IC50 came to 70 nM.

Regarding `O=C1NC(=O)C(CC#Cc2ccc(Br)cc2)(S(=O)(=O)c2ccc(Cl)cc2)S1` (centres unmarked) [Example 263, 5-[3-(4-Bromo-phenyl)-prop-2-ynyl]-5-(4-chloro-benzenesulfonyl)-thiazolidine-2,4-dione], the half-maximal inhibitory concentration (IC50) turned out to be 150 nM.

For the molecule `O=C1NC(=O)C(CC#Cc2ccc(C(F)(F)F)cc2)(S(=O)(=O)c2ccc(F)cc2)S1` (centres unmarked) [Example 264, 5-(4-Fluoro-benzenesulfonyl)-5-[3-(4-trifluoromethyl-phenyl)-prop-2-ynyl)-thiazolidine-2,4-dione], the IC50 worked out at 300 nM.

For the molecule `O=C1NC(=O)C(CC#Cc2ccc(Cl)cc2)(S(=O)(=O)c2ccc3ccccc3n2)S1` (centres unmarked) [Example 265, 5-[3-(4-Chloro-phenyl)-prop-2-ynyl]-5-(quinoline-2-sulfonyl)-thiazolidine-2,4-dione], the IC50 was determined as 1500 nM.

`O=C1NC(=O)C(CC#Cc2cc(C(F)(F)F)cc(C(F)(F)F)c2)S1` (centres unmarked) [Example 266, 5-[3-(3,5-bis-Trifluoromethyl-phenyl)-prop-2-ynyl]-thiazolidine-2,4-dione]: the IC50 came out at 500 nM.

For `Cc1ccc(SC2(CC#Cc3ccc(Cl)cc3)SC(=O)NC2=O)cc1` (centres unmarked) [Example 267, 5-[3-(4-Chloro-phenyl)-prop-2-ynyl]-5-(p-tolylsulfanyl)-thiazolidine-2,4-dione], the 50% inhibitory concentration (IC50) was 5000 nM.
